In paper PMC12113998, “Exploring Multivalent Architectures for Binding and Stabilization of N-Acetylgalactosamine 6-Sulfatase” (Molecules, 2025):
Several values for one entry are separate records, joined by “and”; a condition that tells them apart may be missing. Equal values may be shown once. Marks after values point to notes of the source that are not given here.

Experiments:
[1] = target: T1, N-acetylgalactosamine-6-sulfatase (GALNS) (Homo sapiens, UniProt P34059); parameters: method as in doi:10.1039/C6RA15806D; details: cited from earlier work
T1 construct: Isolated leukocytes were disrupted by sonication; from tissue; host or cells: human leukocytes from healthy donors (sonicated homogenate)
T1 sequence (P34059 27-522): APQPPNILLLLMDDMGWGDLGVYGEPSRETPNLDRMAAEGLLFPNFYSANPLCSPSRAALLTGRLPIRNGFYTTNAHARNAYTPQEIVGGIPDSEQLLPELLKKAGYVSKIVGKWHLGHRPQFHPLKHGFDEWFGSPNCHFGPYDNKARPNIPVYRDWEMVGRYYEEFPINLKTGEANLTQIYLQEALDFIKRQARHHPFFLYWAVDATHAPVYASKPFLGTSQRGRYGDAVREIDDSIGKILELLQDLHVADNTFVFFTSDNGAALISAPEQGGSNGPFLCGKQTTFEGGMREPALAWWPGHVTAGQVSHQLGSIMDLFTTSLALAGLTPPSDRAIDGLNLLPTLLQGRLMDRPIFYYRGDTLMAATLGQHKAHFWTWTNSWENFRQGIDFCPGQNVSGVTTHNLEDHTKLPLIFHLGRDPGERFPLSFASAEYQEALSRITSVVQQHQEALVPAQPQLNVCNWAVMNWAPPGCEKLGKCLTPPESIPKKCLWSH

rhGALNS VIMIZIM® = target: T2, rhGALNS VIMIZIM® (Homo sapiens, UniProt P34059); assay: Stabilization of rhGALNS under thermal denaturation (48 °C, 40 and 60 min); type: biochemical
T2 construct: purchased BioMarin (VIMIZIM, elosulfase alfa)
T2 sequence (P34059 27-522): T1 sequence (P34059 27-522)
Description: (§1) The promising IC50 values observed for 1 and 36 prompted us to assess their effects on the commercially available wild-type recombinant GALNS (rhGALNS VIMIZIM®). […] Building on these findings, we investigated the potential stabilizing effect of these compounds on the tertiary structure of GALNS through a thermal denaturation study. rhGALNS was preincubated with varying concentrations of the compounds before being subjected to heating at 48 °C for 40 and 60 min. The relative enzyme activity was expressed as the ratio between the activity measured after thermal denaturation at 48 °C and that obtained under physiological conditions at 37 °C.
Figure 3 Stabilization of rhGALNS VIMIZIM® in the presence of 1 (A) and 36 (B) was evaluated in vitro by using heat inactivation. Relative enzymatic activity after thermal treatment (48 °C) for 40 and 60 min at the indicated inhibitor concentrations (μM) with respect to the corresponding assay at 37 °C (no denaturation). Data for control were obtained as above except that no inhibitor was present. Experiments were performed in triplicate (see Supporting Information). […]
The thermal stability induced by 1 and 36 against rhGALNS VIMIZIM® was determined by measuring the hydrolysis rate with 4-methylumbelliferyl-β-galactoside-6-sulfate.Na (6.66 mM) after denaturation of enzyme at 48 °C for 40 minutes or 60 minutes with or without (Ctrl) different concentrations of compounds. […]
After incubation 20 µL of 4-methylumbelliferyl-β-galactoside-6-sulfate.Na substrate solution in Na-Acetate/acetic acid buffer (0.1 M/0.1 M, pH 4.3) containing 0.1 M NaCl, 0.02% (w/v) NaN3 and 5 mM Pb-acetate was added. […] Fluorescence was measured in a SpectraMax M2 microplate reader (Molecular-Devices) using a 365 nm excitation wavelength and a 435 nm emission wavelength. […]
Figure S57. Activity of rhGALNS VIMIZIM® was determined after incubation for 0 minutes or 40 minutes or 60 minutes at 48 °C with or without (Ctrl) different concentrations of 1 by measuring the hydrolysis rate 4-methylumbelliferyl-β-galactoside-6-sulfate.Na. […]

[2] = target: T3, recombinant human GALNS (rhGALNS VIMIZIM®) (Homo sapiens, UniProt P34059); assay: IC50 on recombinant human GALNS (rhGALNS VIMIZIM); type: biochemical
T3 construct: purchased BioMarin (VIMIZIM, elosulfase alfa)
T3 sequence (P34059 27-522): T1 sequence (P34059 27-522)
Description: as §1
The IC 50 values of inhibitors against human GALNS in leukocytes isolated from healthy donors or against recombinant human GALNS (rhGALNS VIMIZIM®) were determined by measuring the initial hydrolysis rate with 4 -methylumbelliferyl-β-galactoside-6-sulfate.Na (6.66 mM) at different concentrations of inhibitors.
Data obtained were fitted to the following equation using the OriginPro 2021 (Version 2021. OriginLab Corporation, Northampton, MA, USA): where Vi/Vo, represent the ratio between the activity measured in the presence of the inhibitor (Vi) and the activity of the control without the inhibitor (Vo), “x” the inhibitor concentration, Max and Min, the maximal and minimal enzymatic activity observed, respectively. […]

Question: What does the source list for `O=C(NC(COCc1cn(CCCCCCN2CC(O)C(O)C2CO)nn1)(COCc1cn(CCCCCCN2CC(O)C(O)C2CO)nn1)COCc1cn(CCCCCCN2CC(O)C(O)C2CO)nn1)c1cc(C(=O)NC(COCc2cn(CCCCCCN3CC(O)C(O)C3CO)nn2)(COCc2cn(CCCCCCN3CC(O)C(O)C3CO)nn2)COCc2cn(CCCCCCN3CC(O)C(O)C3CO)nn2)cc(C(=O)NC(COCc2cn(CCCCCCN3CC(O)C(O)C3CO)nn2)(COCc2cn(CCCCCCN3CC(O)C(O)C3CO)nn2)COCc2cn(CCCCCCN3CC(O)C(O)C3CO)nn2)c1` (centres unmarked) [Compound 1]?
Answer: % Inhibition (1 mM) ([1]; 1 mM inhibitor, human leukocyte extracts): 94 ^[a] %; IC50 ([1]; human leukocyte extracts): 47 ± 5 µM; rp/n ([1]; positive MVE as previously reported): 9.2 and 6.5–9.2; enzyme activity with respect to the control after thermal denaturation (rhGALNS VIMIZIM®; 500 µM compound, both time points (40 and 60 min)): around two-fold; IC50 [2]: 110 µM

Question: Which results are given for `OCC1C(O)C(O)CN1CCCCCCn1cc(COCC(COCc2cn(CCCCCCN3CC(O)C(O)C3CO)nn2)(COCc2cn(CCCCCCN3CC(O)C(O)C3CO)nn2)NCc2cc(CNC(COCc3cn(CCCCCCN4CC(O)C(O)C4CO)nn3)(COCc3cn(CCCCCCN4CC(O)C(O)C4CO)nn3)COCc3cn(CCCCCCN4CC(O)C(O)C4CO)nn3)cc(CNC(COCc3cn(CCCCCCN4CC(O)C(O)C4CO)nn3)(COCc3cn(CCCCCCN4CC(O)C(O)C4CO)nn3)COCc3cn(CCCCCCN4CC(O)C(O)C4CO)nn3)c2)nn1` (centres unmarked) [Compound 36]?
Answer: enzyme activity with respect to the control after thermal denaturation (rhGALNS VIMIZIM®; 30 µM compound, 40 min): 1.3 fold; enzyme activity with respect to the control after thermal denaturation (rhGALNS VIMIZIM®; 30 µM compound, 60 min): 2.4 fold; IC50 [2]: 30 µM
